# Laboratory results as given in patent US9492466B2, “Beta-hydroxy-gamma-aminophosphonates for treating immune disorders” (Nucitec S.A. de C.V., priority 2012, dated 2016).
# Experiments:
# THP-1 cells [1] = assay: Phagocytic activity of THP-1 cells (yeast phagocytosis, flow cytometry); format: cell-based, human
# Protocol: The ability of (2R,3S)-(2-hydroxy-5-methyl-3-trimethylammonium-hexyl)-phosphonic acid dimethyl ester; iodide to induce the phagocytic activity of monocytic cells (THP-1 cells) was investigated. For this, THP-1 cells were differentiated using phorbol myristate 13-acetate (PMA, 100 ng/mL) in order to induce the phagocytic activity of yeast. When the cells were treated with PMA (100 ng/mL) for 48 hours cell differentiation of monocytic cells to macrophages was observed (FIG. 14). Yeast were added to cultured media and the phagocytosis was measured by flow cytometry (FIG. 15). (2R,3S)-(2-hydroxy-5-methyl-3-trimethylammonium-hexyl)-phosphonic acid dimethyl ester; iodide induced the phagocytosis of yeast by macrophages in a similar way that those macrophages treated with PMA alone.
# [2] = tested on: T lymphocyte subpopulations; assay: T lymphocyte subpopulations in bloodstream, thymus and spleen, 8 weeks of treatment; format: in vivo, obese (fa/fa) Zucker rats (ZDF); settings: 100 mg/kg
# Description: To determine whether the increase in lymphocytes is due to an increased production of lymphocytes or their mobility, the levels of T lymphocyte subpopulations in bloodstream, thymus, and spleen from obese (fa/fa) Zucker rats (ZDF) and lean rats (control), after 8 weeks of treatment with Compound 2 was investigated.
# Obese rats were used in this study. Lymphocyte populations from bloodstream, thymus, and spleen were identified and quantified by flow cytometry using mice monoclonal antibodies against rat CD3+ conjugated with different fluorochromes and analyzed on a FACS Calibur flow cytometer BD using the Cell Quest software.
# THP-1 cells [3] = assay: Cell proliferation of THP-1 cells co-stimulated with lipopolysaccharide; format: cell-based, human
# Protocol: The ability of (2R,3S)-(2-hydroxy-5-methyl-3-trimethylammonium-hexyl)-phosphonic acid dimethyl ester iodide to modify the cell proliferation of monocytic cells (THP-1 cells) co-stimulated with lipopolysaccharide was investigated. THP-1 cells, a human monocytic cell line, were used and cultured in RPMI 1640 medium supplemented with 10% FBS and 100 U/ml penicillin-streptomycin. Cell cultures were incubated at 37° C. and 5% CO2. THP-1 cells were plated at 1×10^6 cells/ml in 24-well microtiter plates. Cells were co-stimulated with lipopolysaccharide (LPS, 10 μg/mL) in order to induce cell proliferation. Cells were treated with the compound at different concentrations, and a reduction in the number of cells at 0.01, 10 and 100 μM at 24 hours of treatment were observed (FIG. 12).
# blood T-lymphocytes = assay: T cell levels in blood of obese rats, 5 weeks of treatment; format: in vivo, obese (fa/fa) Zucker rats; settings: obese Zucker rats, 100 mg/kg
# Protocol: Compound 2 (100 mg/kg) was administered to obese (fa/fa) Zucker rats five days a week for 5 weeks. […] The level of T helper (CD4+) increased; cytotoxic T-lymphocyte(CD8+) levels remained unchanged.
# The effect of Compound 2 on T lymphocyte populations in normal and unhealthy rats was investigated. Obese (fa/fa) Zucker rats (ZDF) and lean Wistar rats, as control, were used. Zucker rats present a mutation in the leptin receptor, which is the molecular basis of their characteristic phenotype (loss of satiety). Obese Zucker rats are considered representative of obesity-associated type diabetes in humans. They are hyperlipidaemic, grossly obese, hyperinsulinaemic, insulin resistant, and not prone to ketosis. Metabolic changes related to increased insulin resistance, including oxidative stress, have been implicated in obesity-related pathophysiology. However, most attention in recent years has been devoted to the concept that obesity elicits a chronic low-grade systemic inflammatory state.
# In this study, animals were treated with 100 mg/kg of Compound 2 five days a week for 5 weeks. The circulating lymphocyte populations were identified and quantified by flow cytometry using mice monoclonal antibodies against rat CD3+ conjugated with different fluorochromes and analyzed on a FACS Calibur flow cytometer BD using the Cell Quest software.
# ALT, AST and AP in serum = assay: Level of liver enzymes (colorimetric); format: in vivo, obese (fa/fa) Zucker rats (ZDF); settings: obese Zucker rats, 100 mg/kg, p<0.01
# Protocol: To determine whether the morphological changes in liver tissue (see EXAMPLE 6) were associated with an improvement in liver function, the levels of liver enzymes were investigated. Obese (fa/fa) Zucker rats (ZDF) and lean rats, as control, were used. Obese (fa/fa) Zucker rats (ZDF) were treated with a daily dose of Compound 2 (100 mg/kg) 5 days a week during eight weeks.
# Plasma from blood samples was collected and liver enzymes were quantified by colorimetric methods. Liver enzymes, or liver (hepatic) function tests, are used to determine if the liver is functioning normally, or if it has an injury or disease. Alanine aminotransferase (ALT) is typically used to detect a liver injury or an active or chronic liver problem. Aspartate aminotransferase (AST) is used to detect liver injuries and long-term liver disease. Highly elevated levels of AST may indicate active hepatitis from any cause. Alkaline phosphatase (ALP) is an enzyme found in the bile ducts of the liver. Damage or obstruction of the bile ducts may result in elevated levels of ALP.
# [4] = Level of glucose, triglycerides, cholesterol and liver glycogen; format: in vivo, obese (fa/fa) Zucker rats (ZDF); settings: 100 mg/kg, eight weeks
# Protocol: To determine whether the morphological and functional changes (see EXAMPLES 6 and 7) were associated with an improvement in liver metabolism, the levels of glucose, triglycerides and cholesterol were quantified. Obese (fa/fa) Zucker rats (ZDF) and lean rats, as control, were used. Obese (fa/fa) Zucker rats (ZDF) were treated with a daily dose of Compound 2 (100 mg/kg) 5 days a week during eight weeks. Plasma from blood samples was collected, and the triglycerides, cholesterol and glucose levels were quantified by colorimetric methods. Also, liver samples were taken, and liver glycogen was measured.
# [5] = tested on: liver injury present in obese (fa/fa) Zucker rats (ZDF); assay: Histological studies of liver tissue; format: in vivo; settings: 100 mg/kg
# Protocol: The ability of Compound 2 (100 mg/kg) to modify the liver injury present in obese (fa/fa) Zucker rats (ZDF) was investigated. Obese (fa/fa) Zucker rats (ZDF) and lean rats, as control, were used. Obese (fa/fa) Zucker rats (ZDF) were treated with a daily dose of 100 mg/kg of the Compound 2, 5 days a week during eight weeks.
# Samples of tissue from liver were taken, and histological sections were made and stained with hematoxylin and eosin from obese (fa/fa) Zucker rats and lean rats.
# THP-1 cells [6] = assay: Cell proliferation of THP-1 cells co-inhibited with hydrocortisone; format: cell-based, human; settings: hydrocortisone 10 μg/mL, all used concentrations, 48 hours of treatment
# Protocol: The ability of (2R,3S)-(2-hydroxy-5-methyl-3-trimethylammonium-hexyl)-phosphonic acid dimethyl ester; iodide to modify the cell proliferation of THP-1 cells was investigated. THP-1 cells were cultured in RPMI 1640 medium supplemented with 10% FBS and 100 U/ml penicillin-streptomycin. Cell cultures were incubated at 37° C. and 5% CO2. THP-1 cells were plated at 1×10^6 cells/ml in 24-well microtiter plates. Cells were co-inhibited with hydrocortisone (10 μg/mL) to inhibit cell proliferation.
# thymus and spleen = assay: Histological studies of thymus and spleen tissue; format: in vivo, obese (fa/fa) Zucker rats; settings: obese Zucker rats, hematoxylin and eosin
# Protocol: Samples of tissue from thymus (FIG. 6) and spleen (FIG. 7) were taken and histological sections were made and stained with hematoxylin and eosin from obese (fa/fa) Zucker rats and lean rats. The histological sections from thymus show a decrease in thymic medulla in samples from obese animals. When animals were treated with Compound 2 for five weeks, a recovery of the cellularity of medulla in this lymphoid organ was observed.
# Nocardia brasiliensis = assay: Reduction in mycetoma development induced in mice; format: in vivo; settings: Balb-c mice, dexamethasone, 5 mg/kg and 50 mg/kg, after 15 days of treatment
# Protocol: The ability of (2R,3S)-(2-hydroxy-5-methyl-3-trimethylammonium-hexyl)-phosphonic acid dimethyl ester; iodide at 5 mg/kg and 50 mg/kg to reduce the mycetoma development induced in mice was investigated. For this, male Balb-c mice weighing 25 grams were used. Mice were treated with dexamethasone (125 mg/kg) and mycetoma was induced with the inoculation Nocardia brasiliensis (15×10^8 cells, se) (FIG. 16).
# Mycetoma is a chronic infectious disease that remains localized, involves cutaneous and subcutaneous tissue, fascia, and bone, and is noncontagious. The disease is characterized by tumefaction, draining sinuses, and the presence of sclerotia. The 31 fungi known to cause mycetoma are associated with soil and woody plants. A chronic, tumor-like deforming disease develops during subsequent years following the introduction of the etiologic agent via localized trauma.
# blood lymphocytes = assay: T cell levels in normal rats (flow cytometry of circulating lymphocytes); format: in vivo; settings: Wistar rats, 22.4 mg/kg
# Protocol: The ability of (2R,3S)-(2-hydroxy-5-methyl-3-trimethylammonium-hexyl)-phosphonic acid; iodide (referred to herein as “Compound 1”) to modify the level of blood lymphocytes in rats was investigated. (2R,3S)-(2-hydroxy-5-methyl-3-trimethylammonium-hexyl)-phosphonic acid; iodide (22.4 mg/kg) was administered to Wistar rats 5 days a week for two weeks. The circulating lymphocyte populations were identified and quantified by flow cytometry mice monoclonal antibodies against rat CD3+ conjugated with different fluorochromes and analyzed on a FACS Calibur flow cytometer BD using the Cell Quest software. […] It is noted that administration of Compound 1 increases the levels of T helper (CD4+) and cytotoxic (CD8+) lymphocytes. In addition, an increase in regulatory T cells (CD4+CD25+) (p<0.01) was observed.
# CD4+ counts = settings: HIV-infected patients, in combination with standard antiretroviral treatment, vs antiretroviral agents with no supplementation; cited from earlier work
compound,measurement,setting,value
"COP(=O)(C[C@H](O)[C@H](CC(C)C)[N+](C)(C)C)OC [Compound 2, (2R,3S)-(2-hydroxy-5-methyl-3-trimethylammonium-hexyl)-phosphonic acid dimethyl ester; iodide]",phagocytosis of yeast by macrophages,"THP-1 cells [1]; PMA-differentiated THP-1 cells, similar to macrophages treated with PMA alone",induced
same,cytotoxic lymphocytes,"[2]; obese rats, blood",significant increase
same,levels of total blood lymphocytes,"[2]; obese rats, blood",increased
same,subpopulation of T helper cells,[2]; spleen,reduction
same,subpopulation of cytotoxic lymphocytes,[2]; spleen,reduction
same,total T-lymphocytes,[2]; spleen,decline
same,cytotoxic T-lymphocytes,[2]; thymus,increase
same,double positive CD8+ CD4+ (DP) lymphocytes,[2]; thymus,slight decrease
same,population of double negative CD4-CD8- (DN) lymphocytes,[2]; thymus,slight increase
same,population of helper T cells,[2]; thymus,increase
same,effect of LPS,THP-1 cells [3]; THP-1 cells co-stimulated with LPS 10 μg/mL,inhibit
same,number of cells (cell proliferation),"THP-1 cells [3]; THP-1 cells, LPS 10 μg/mL, at 0.01, 10 and 100 μM, 24 hours of treatment",reduction
same,cytotoxic T-lymphocyte (CD8+) levels,"blood T-lymphocytes; 5 weeks, blood",unchanged
same,level of T helper (CD4+),"blood T-lymphocytes; 5 weeks, blood",increased
same,T cell populations,"blood T-lymphocytes; 5 weeks, similar to healthy Wistar rats, although in minor intensity",increase
same,level of ALT in serum,"ALT, AST and AP in serum; 5 days a week during eight weeks",significant reduction
same,level of AP in serum,"ALT, AST and AP in serum; eight weeks",significant reduction
same,level of AST in serum,"ALT, AST and AP in serum; eight weeks",significant reduction
same,amount of glycogen in the liver,[4]; Zucker rats,higher
same,cholesterol compared with control (lean) levels,[4]; obese Zucker rats,reached the control levels
same,glucose compared with control (lean) levels,[4]; obese Zucker rats,reached the control levels
same,cholesterol levels,"[4]; obese Zucker rats, p<0.01",significant reduction
same,glucose levels,"[4]; obese Zucker rats, p<0.01",significant reduction
same,triglycerides levels,"[4]; obese Zucker rats, p<0.01",significant reduction
same,liver histology,"[5]; eight weeks, hematoxylin and eosin",normal liver histology
same,degree of fat accumulation in the liver,[5]; five days a week for eight weeks,significant reduction
same,cell proliferation,THP-1 cells [6],induction
same,"spleen morphology (white pulp, lymphoid follicles)",thymus and spleen,recovery
same,cellularity of medulla in thymus (histology),thymus and spleen; treated for five weeks,recovery
same,paw thickness (mycetoma),Nocardia brasiliensis,significant reduction
"(2R,3S)-(2-hydroxy-5-methyl-3-trimethylammonium-hexyl)-phosphonic acid; iodide [Compound 1]",level of total blood T-lymphocytes,"blood T-lymphocytes; five days a week for 5 weeks, vs control group",increased
same,level of total T-lymphocytes,"blood lymphocytes; 5 days a week for two weeks, vs control group",increased
same,levels of T helper (CD4+) lymphocytes,blood lymphocytes; two weeks,increases
same,levels of cytotoxic (CD8+) lymphocytes,blood lymphocytes; two weeks,increases
same,regulatory T cells (CD4+CD25+),"blood lymphocytes; two weeks, p<0.01",increase
C[N+](C)(C)C[C@H](O)CC(=O)[O-] [L-carnitine],improvement in CD4+ counts,CD4+ counts,greater improvement
"CCCCCCCCCCCCCC(=O)O[C@@H]1[C@@H](C)[C@@]2(O)[C@@H](C=C(CO)C[C@]3(O)C(=O)C(C)=C[C@@H]23)[C@@H]2C(C)(C)[C@]12OC(C)=O [PMA, phorbol myristate 13-acetate, reference compound]",cell differentiation of monocytic cells to macrophages,"THP-1 cells [1]; THP-1 cells, 100 ng/mL, 48 hours",observed
